In patent US6514911B1, “Substituted oxadiazines useful as pesticides” (Uniroyal Chemical Company, Inc., priority 2002, dated 2003):

Experiments:
Type in all cases: in vivo
[1] = tested on: tall morningglory (Ipomoea purpurea (L.) Roth) (TM); experiment: Postemergence herbicide test, foliar spray, tall morningglory; conditions: 3000 ppm foliar spray to drip point, treated six days after emergence, two weeks after treatment
Description: (§1) To illustrate the effectiveness of the previously described substituted oxadiazines of this invention as preemergence herbicides, 300 mg of the chemical was dissolved in a composition comprising 10 mL acetone to which 30 mg of tile emulsifying agent, ethoxylated sorbitan monolaurate, was added. The solution was diluted to 100 mL with distilled water. Ten milliliters of this 3000 ppm solution was diluted to 250 ppm with distilled water. The chemical was applied at the rate of 10 pounds/acre (11.2 kg/ha) by drenchings 46 mL of the 250 ppm solution on the surface of soil in 4½ inch (11.25 cm) plastic pots wherein seeds of the following weeds had been planted: tall morningglory (Ipomoea purpurea (L.) Roth) (TM), To illustrate the effectiveness of the described substituted oxadiazines as postemergence herbicides, the 3000 ppm solution described under Example 5 was atomized with a conventional DeVilbiss™ sprayer, wetting the foliage to the drip point. The weeds, which were the same species as described in Example 5, were treated six days after emergence. The percent weed control was evaluated two weeks after treatment.

[2] = tested on: barnyardgrass (Echinochloa crus-galli (L.) Beauv.) (BG); experiment: Postemergence herbicide test, foliar spray, barnyardgrass; conditions: 3000 ppm foliar spray to drip point, treated six days after emergence, two weeks after treatment
Description: as §1, with “barnyardgrass (Echinochloa crus-galli” for “tall morningglory (Ipomoea purpurea”, “Beauv.) (BG), and” for “Roth) (TM),”

[3] = tested on: green foxtail (Setaria virdis (L.) Beauv.) (GF); experiment: Postemergence herbicide test, foliar spray, green foxtail; conditions: 3000 ppm foliar spray to drip point, treated six days after emergence, two weeks after treatment
Description: as §1, with “41⁄2” for “4½”, “green foxtail (Setaria […].) Beauv.) (GF).” for “tall morningglory (Ipomoea purpurea (L.) Roth) (TM),”, “DeVilbissTM” for “DeVilbiss™”

[4] = tested on: prickly sida (Sida spinosa L.) (PS); experiment: Preemergence herbicide test, soil drench, prickly sida; conditions: Sida spinosa, 336 h, 10 lbs/A (11.2 kg/ha) soil drench, two weeks after treatment, vs untreated checks, read-out: Percent Weed Control PS
[5] = tested on: switchgrass (Panicum virgahim L.) (SG); experiment: Postemergence herbicide test, foliar spray, switchgrass; conditions: 3000 ppm foliar spray to drip point, treated six days after emergence, two weeks after treatment
Description: as §1, with “41⁄2” for “4½”, “switchgrass (Panicum […].) (SG),” for “tall morningglory (Ipomoea purpurea (L.) Roth) (TM),”, “DeVilbissTM” for “DeVilbiss™”

[6] = tested on: velvetleaf (Abutilon theophrasti Medik.) (VL); experiment: Postemergence herbicide test, foliar spray, velvetleaf; conditions: 3000 ppm foliar spray to drip point, treated six days after emergence, two weeks after treatment
Description: as §1, with “velvetleaf (Abutilon theophrasti Medik.) (VL),” for “tall morningglory (Ipomoea purpurea (L.) Roth) (TM),”

| SMILES | Percent Weed Control TM [1] [%] | Percent Weed Control BG [2] [%] | Percent Weed Control GF [3] [%] | pest or weed control at 11208.5 g/ha [4] [%] | Percent Weed Control SG [5] [%] | Percent Weed Control VL [6] [%] |
| --- | --- | --- | --- | --- | --- | --- |
| FC(F)(F)C1=NC(C(F)(F)F)(C(F)(F)F)N=C(c2cccc(Cl)c2)O1 [Compound 4, 2-(3-chlorophenyl)-4,4,6-tris(trifluoromethyl)-4H-1,3,5-oxadiazine] | 100 | 100 | 100 | 100 | 80 | 50 |
| FC(F)(F)C(F)(F)C1=NC(C(F)(F)F)(C(F)(F)F)N=C(c2cccc(Cl)c2)O1 [Compound 13, 2-(3-chlorophenyl)-6-(pentafluoroethyl)-4,4-bis(trifluoromethyl)-4H-1,3,5-oxadiazine] | 100 | 80 | 100 | 100 | 90 | 100 |
| Fc1ccc(C2=NC(C(F)(F)F)(C(F)(F)F)N=C(C(F)(F)C(F)(F)F)O2)cc1Cl [Compound 20, 2-(3-chloro-4-fluorophenyl)-6-(pentafluoroethyl)-4,4-bis(trifluoromethyl)-4H-1,3,5-oxadiazine] | 0 | 30 | 0 | 100 | 30 | 70 |
| FC(F)(F)C(F)(F)C1=NC(C(F)(F)F)(C(F)(F)F)N=C(c2ccc(Cl)cc2)O1 [Compound 24, 2-(4-chlorophenyl)-6-(pentafluoroethyl)-4,4-bis(trifluoromethyl)-4H-1,3,5-oxadiazine] | 0 | 20 | 0 | 100 | 20 | 50 |
| FC(F)(F)C(F)(F)C1=NC(C(F)(F)F)(C(F)(F)F)N=C(c2ccc(Br)cc2)O1 [Compound 25, 2-(4-bromophenyl)-6-(pentafluoroethyl)-4,4-bis(trifluoromethyl)-4H-1,3,5-oxadiazine] | 20 | 50 | 30 | 100 | 0 | 100 |
